Activity calls are given as the source filed them.
Assays:
[1] = Luminescence Cell-Based Dose Retest to Confirm Inhibitors of Cancer Stem Cells. [Related pubchem assays (depositor defined):AID2717, AID2721]; type: functional; conditions: Homo sapiens
[2] = viability loss of HMLE_sh_eGFP cells – cell-based, luminescence, counter-screen for HMLE_sh_ECad selective toxicity project, dose response (AID 463074); type: functional, Homo sapiens;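 note: HMLE human mammary epithelial cells expressing control shRNA against eGFP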
[3] = system: HEK293; test: cells; type: functional, cell-based; conditions: Homo sapiens
[4] = biological target: Nuclear receptor subfamily 0 group B member 1 (Homo sapiens, UniProt P51843); test: Luminescence-based cell-based high throughput dose response assay for inhibitors of the orphan nuclear receptor subfamily 0, group B, member 1 (DAX1; NR0B1). [Related pubchem assays (depositor defined):AID504766, AID504790]; type: functional
Sequence of Nuclear receptor subfamily 0 group B member 1 (P51843 whole entry): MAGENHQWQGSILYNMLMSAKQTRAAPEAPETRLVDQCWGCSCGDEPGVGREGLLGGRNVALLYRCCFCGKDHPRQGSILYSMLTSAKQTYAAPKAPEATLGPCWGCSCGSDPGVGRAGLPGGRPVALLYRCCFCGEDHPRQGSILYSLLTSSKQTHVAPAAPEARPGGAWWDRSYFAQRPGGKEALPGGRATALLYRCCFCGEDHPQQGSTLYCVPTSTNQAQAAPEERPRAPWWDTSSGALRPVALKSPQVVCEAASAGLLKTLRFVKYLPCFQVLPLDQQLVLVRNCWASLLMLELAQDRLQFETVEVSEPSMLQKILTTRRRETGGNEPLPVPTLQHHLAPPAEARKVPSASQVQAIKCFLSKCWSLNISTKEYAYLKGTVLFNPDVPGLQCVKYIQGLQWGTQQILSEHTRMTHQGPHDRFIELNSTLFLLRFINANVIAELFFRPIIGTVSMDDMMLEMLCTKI

[5] = Luminescence Cell-Based Dose Confirmation HTS to Identify Activators of 5'UTR Stem-Loop Driven Alpha-Synuclein mRNA Translation in H4 Neuroglioblastoma Cells. [Related pubchem assays: 1829 (Project Summary), 1814 (Primary HTS)]; type: functional
[6] = Luminescence Cell-Based Dose Response HTS to Identify Activators of Luciferase Translation or Activity in H4 […] Cells. [Related pubchem assays: 1829 (Project Summary), 1814 (Primary HTS)]; type: functional
[7] = system: H4; test: Luminescence Cell-Based Dose Response HTS to Identify Activators of 5'UTR Stem-Loop Driven Prion Protein mRNA Translation in H4 Neuroglioblastoma Cells. [Related pubchem assays: 1829 (Project Summary), 1814 (Primary HTS)]; type: functional; conditions: Homo sapiens
[8] = system: A-375; test: MITF: Counter assay: A375 proliferation Measured in Cell-Based System Using Plate Reader - 2084-03_Inhibitor_Dose_DryPowder_Activity. [Related pubchem assays (depositor defined):AID488944]; type: functional; conditions: Homo sapiens
[9] = system: A-375; test: proliferation inhibition in MITF-low A375 cells – cell-based, cherry-pick samples, set 2, counter-screen for MITF modulator project, dose response (AID 540335); type: functional; conditions: Homo sapiens
[10] = viability of uninfected HEp-2 cells – cell-based, HTS, cytotoxicity control for RSV inhibitor project, dose response (AID 2410); type: functional; conditions: human respiratory syncytial virus
[11] = system: Vero; test: cells; type: functional, cell-based; conditions: Chlorocebus sabaeus
[12] = cells
[13] = system: BJ; test: BJ-TERT fibroblast viability loss – cell-based, RAS-independent, luminescence, dose response (AID 1933); type: functional; conditions: Homo sapiens
[14] = system: BJ; test: cells; type: functional, cell-based; conditions: Homo sapiens
[15] = biological target: Luciferin 4-monooxygenase (Photinus pyralis, UniProt P08659); test: inhibition of purified Photinus pyralis luciferase – biochemical, luminescence, dose response (AID 1891)
Sequence of Luciferin 4-monooxygenase (P08659 whole entry): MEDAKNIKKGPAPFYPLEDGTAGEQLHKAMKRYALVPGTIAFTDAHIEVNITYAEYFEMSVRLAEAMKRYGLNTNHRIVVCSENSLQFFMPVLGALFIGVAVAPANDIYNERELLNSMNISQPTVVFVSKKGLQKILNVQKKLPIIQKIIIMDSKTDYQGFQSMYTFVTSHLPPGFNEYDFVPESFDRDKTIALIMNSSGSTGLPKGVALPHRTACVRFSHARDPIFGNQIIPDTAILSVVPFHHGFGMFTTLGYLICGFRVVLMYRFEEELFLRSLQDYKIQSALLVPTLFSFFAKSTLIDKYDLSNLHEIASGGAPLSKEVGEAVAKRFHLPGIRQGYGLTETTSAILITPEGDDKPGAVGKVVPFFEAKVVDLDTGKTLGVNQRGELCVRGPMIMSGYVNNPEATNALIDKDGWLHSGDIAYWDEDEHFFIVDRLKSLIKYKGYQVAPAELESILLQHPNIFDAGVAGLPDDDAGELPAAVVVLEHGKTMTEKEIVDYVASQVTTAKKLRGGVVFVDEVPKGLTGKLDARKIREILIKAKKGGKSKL

[16] = Luminescence Cell-Based Dose Confirmation HTS to Identify Inhibitors of Platelet Dense Granule Release. [Related pubchem assays: 1663 (Primary HTS), 1678 (Summary of Project)]; type: functional
[17] = system: BJ; test: BJ-TERT-LT-ST fibroblast viability loss – cell-based, RAS-independent, luminescence, dose response (AID 1935); type: functional; conditions: Homo sapiens;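 note: BJ fibroblasts immortalized with TERT plus LT and ST oncogenes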
[18] = DRD fibroblast viability loss – cell-based, non-viral oncogenic, luminescence, dose response (AID 1934); type: functional; conditions: Homo sapiens
[19] = system: Jurkat; test: blockers of NF-kB activation in T cells – Jurkat, luciferase reporter, luminescence, B- and T-cell, dose response (AID 489004); type: functional, cell-based; conditions: Homo sapiens;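 note: NF-kB luciferase reporter Jurkat cells stimulated with PMA plus ionomycin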
[20] = HEK-293T viability loss, compound-treated – cell-based, uHTS hits, cytotoxicity control for B/T-cell NF-kB inhibitor project, dose response (AID 489019); type: functional;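 note: IC50 reflects cytotoxicity as loss of cell viability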
[21] = biological target: Heat shock protein HSP 90-alpha (Homo sapiens, UniProt P07900); type: functional, organism-based
[22] = system: BJ; test: growth inhibition of engineered Ras-driven BJ cells – cell-based, alamar blue fluorescence, cherrypicked samples, dose response (AID 2631); type: functional; conditions: Homo sapiens;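 note: confirmatory dose-response assay in RAS-dependent BJ fibroblasts engineered with TERT, LT and ST, with cytotoxicity read by fluorescence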
[23] = system: INS1; test: INS-1E survival protection against cytokine death – cell-based, luminescence, retest, dose response (AID 449756); type: functional; conditions: Rattus norvegicus;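 note: cell death triggered by IL-1 beta plus TNF-alpha plus IFN-gamma mixture; protective hits raise ATP signal compared with cytokine alone wells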
[24] = reduction of Shn3 3'UTR-driven luciferase in osteoblasts – cell-based, Clone20 osteoblasts, firefly luciferase, cherry-picked, dose response (AID 624132); type: functional;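 note: firefly luciferase luminescence from reporter carrying the Shn3 3'UTR in osteoblasts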
[25] = loss of viability in HepG2 cells – cell-based, CellTiter-Glo, cherry-picked, cytotoxicity control for Shn3 inhibitor project, dose response (AID 624134); type: functional
[26] = biological target: Photoreceptor-specific nuclear receptor (Homo sapiens, UniProt Q9Y5X4); type: functional, cell-based;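 note: CHO-S cells with Gal4-NCOR and VP16-NR2E3 two-hybrid luciferase reporter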
Sequence of Photoreceptor-specific nuclear receptor (Q9Y5X4 whole entry, the tested form may be a part): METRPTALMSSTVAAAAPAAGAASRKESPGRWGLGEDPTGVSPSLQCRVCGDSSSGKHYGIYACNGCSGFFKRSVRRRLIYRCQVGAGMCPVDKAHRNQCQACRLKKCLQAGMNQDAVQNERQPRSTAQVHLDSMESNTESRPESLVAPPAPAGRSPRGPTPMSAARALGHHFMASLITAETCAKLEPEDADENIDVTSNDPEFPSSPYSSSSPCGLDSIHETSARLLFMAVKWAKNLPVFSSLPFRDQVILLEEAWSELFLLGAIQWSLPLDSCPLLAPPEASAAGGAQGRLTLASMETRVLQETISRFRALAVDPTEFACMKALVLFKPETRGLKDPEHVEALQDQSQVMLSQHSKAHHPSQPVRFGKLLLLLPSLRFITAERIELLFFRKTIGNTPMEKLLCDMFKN

[27] = blockers of HIV-1 envelope-mediated cell-cell fusion – cherry-pick, dose response (AID 652057); type: functional, cell-based
[28] = viability loss in CEM21 cells – cell-based, CellTiter-Glo luminescence, cherry-picked, cytotoxicity control for viral fusion inhibitor project, dose response (AID 652042); type: functional;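 note: potency for signal decrease meaning cytotoxicity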
[29] = blockers of HIV-1 ZM109 envelope-driven cell-cell fusion – HeLa effector, CEM target cells, luciferase, cherry-pick, dose response (AID 652058); type: functional, cell-based;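 note: luciferase signal from HIV-1 Env mediated cell-cell fusion of effector and target cells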
[30] = biological target: Paired box protein Pax-8 (Homo sapiens, UniProt Q06710); test: PAX8 transcriptional activity inhibition in RMG-I – RMG-I cells, luciferase, cherry-pick, dose response (AID 687027); type: functional, cell-based;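 note: luciferase reporter driven by Pax8 target thyroperoxidase promoter measured by SteadyGlo luminescence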
Sequence of Paired box protein Pax-8 (Q06710 whole entry, the tested form may be a part): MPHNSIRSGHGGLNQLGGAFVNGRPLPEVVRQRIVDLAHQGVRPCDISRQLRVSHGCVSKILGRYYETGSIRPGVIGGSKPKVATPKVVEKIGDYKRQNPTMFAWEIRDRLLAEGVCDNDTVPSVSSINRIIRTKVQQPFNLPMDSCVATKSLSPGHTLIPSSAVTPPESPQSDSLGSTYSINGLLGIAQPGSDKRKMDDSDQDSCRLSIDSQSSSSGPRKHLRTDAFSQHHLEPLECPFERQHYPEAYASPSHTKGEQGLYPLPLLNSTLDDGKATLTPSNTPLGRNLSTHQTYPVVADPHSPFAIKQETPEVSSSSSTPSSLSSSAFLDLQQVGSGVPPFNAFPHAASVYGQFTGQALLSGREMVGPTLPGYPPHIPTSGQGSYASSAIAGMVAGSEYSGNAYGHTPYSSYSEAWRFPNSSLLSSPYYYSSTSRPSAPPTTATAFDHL

[31] = off-target signal loss in HeLa-CEM21 co-culture – HeLa F-luc CTL cells, cherry-picked, counter-screen for HIV-1 Env fusion inhibitor project, dose response (AID 652040); type: functional, cell-based;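 note: potency for signal decrease marking cytotoxic or nonspecific inhibition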
[32] = HIV-1 AD8 envelope cell-cell fusion blockers – cherry-pick, dose response (AID 652062); type: functional, cell-based;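 note: luciferase signal from cell-cell fusion driven by HIV-1 clade B AD8 Env; potency is for inhibitors of fusion seen as a drop in luminescence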
[33] = A549 cell cytotoxicity, dose response, cytotoxicity control, plate reader, cherry-pick, antagonist series (AID 743412); type: functional, cell-based
[34] = toxicity toward HepG2 liver cells – cell-based, plate reader, cherry-pick, antagonist series, cytotoxicity control, dose response (AID 743416); type: functional
[35] = blockers of bursicon-stimulated LGR2 cAMP reporter – cell-based, HEK293, CRE-luciferase reporter, cherry pick, set 2, dose response (AID 743343); type: functional;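 note: transfected cells were stimulated with diluted bursicon conditioned medium after compound addition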
[36] = general cell-killing toxicity readout – plate reader, dry powder samples, cytotoxicity control for PAX8 inhibitor project, dose response (AID 743021); type: functional, cell-based
[37] = blockade of melanocortin 4 receptor signaling – cell-based, plate reader, cherry pick, counter-screen for LGR2 antagonist project, dose response (AID 743444); type: functional;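 note: transfected HEK 293 cells stimulated with alpha-MSH peptide; potency of inhibitors of the alpha-MSH evoked signal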
[38] = viability loss in HEK293 cells – cell-based, plate reader, cherry-picked samples, cytotoxicity control, dose response (AID 743446); type: functional

With `O=C(c1cc(-c2ccc(O)cc2)on1)N1CCN(c2ccccc2)CC1` the AC50 [1] was 2890 nM (active) and the AC50 [2] was 23100 nM (active).

With `Cc1cc(NC(=O)c2cc3cccc([N+](=O)[O-])c3[nH]2)ccc1F` the IC50 [3] was > 67500 nM (inactive) and the IC50 [4] was > 67500 nM (inactive).

In the case of `Cc1cnn(C(S)=NCCc2ccccc2)c1`, the EC50 [5] is reported as 27300 nM (active), the EC50 [6] is reported as 25400 nM (active) and the EC50 [7] is reported as > 120000 nM (not active). The AC50 [8] was > 35000 nM (active) and the AC50 [9] was > 35000 nM (active).

For `Cc1cccc(NC(=O)C(C)Sc2nc3ccccc3c(=O)n2CCCN2CCOCC2)c1` (stereo not drawn), the CC50 [10] was 30800 nM (active), the IC50 [11] was 23400 nM (active) and the IC50 [12] was 26800 nM (active).

With `COc1ccccc1C(=O)Nc1nc2ccccc2[nH]1` the EC50 [13] was 802 nM (inconclusive), the EC50 [14] was 607 nM (inconclusive) and the EC50 [15] was 159 nM (active). For the same compound, the EC50 [16] was 196 nM (active), the EC50 [17] was 1830 nM (inconclusive) and the EC50 [18] was 734 nM (active). The IC50 [19] was 570 nM (active), the IC50 [20] was > 80000 nM (inactive) and the AC50 [21] was 555 nM (active). For the same compound, the EC50 [22] was > 133000 nM (inactive), the AC50 [23] was 1690 nM (active) and the AC50 [24] was 868 nM (active). The AC50 [25] was 6570 nM (active), the IC50 [26] was 3250 nM (active) and the AC50 [27] was 879 nM (active). For the same compound, the AC50 [28] was 1710 nM (active), the AC50 [29] was 6080 nM (active) and the AC50 [30] was 2040 nM (active). For the same compound, the AC50 [31] was 2570 nM (active), the AC50 [32] was 1410 nM (active) and the AC50 [33] was 1290 nM (active). The AC50 [34] was 6260 nM (active), the AC50 [35] was 217 nM (active) and the AC50 [36] was 1790 nM (active). For the same compound, the AC50 [37] was 253 nM (active) and the AC50 [38] was 2330 nM (active).

From ChEMBL document CHEMBL1201862, “PubChem BioAssay data set” (2004)
